# In ChEMBL document CHEMBL1133957, “A selective inhibitor of Escherichia coli prephenate dehydratase” (Bioorg Med Chem Lett, 2001):
# Activity calls are given as the source filed them. The calls are words filed in the database; no cut-off is given here.
# Columns and labels:
# [1] = Inhibitory activity against (PDT22) Prephenate dehydratase; set-up: species or system Escherichia coli
# [2] = Inhibitory activity against chorismate mutase; set-up: species or system Escherichia coli
# Escherichia coli [3] = assay: Inhibitory activity against (PDT22) Prephenate dehydratase at 500 uM
# Escherichia coli [4] = assay: Inhibitory activity against (PDT22) Prephenate dehydratase at 500 uM; No inhibition
# Escherichia coli [5] = assay: Inhibitory activity against chorismate mutase; No inhibition
# Escherichia coli [6] = assay: Inhibitory activity against chorismate mutase at 500 uM; No inhibition
# [7] = Inhibitory activity against Chorismate mutase; set-up: species or system Escherichia coli
SMILES,IC50 [1] [µM],IC50 [2] [µM],also measured
O=C(O)c1cccc([N+](=O)[O-])c1-c1c(C(=O)O)cccc1[N+](=O)[O-],600,50,
O=C(O)c1ccccc1-c1c(O)cccc1C(=O)O,2900,1000,
O=C(O)c1cc(O)ccc1-c1c(C(=O)O)cccc1[N+](=O)[O-],950,350,
O=C(O)c1cc(O)c(O)cc1-c1c(C(=O)O)cccc1[N+](=O)[O-],,1000,inhibition (Escherichia coli [3]): < 25%
O=C(O)c1ccccc1-c1c(C(=O)O)cccc1[N+](=O)[O-],1900,280,
O=C(O)c1ccc([N+](=O)[O-])c(-c2c(C(=O)O)cccc2[N+](=O)[O-])c1,550,1350,
CC(=O)Nc1cccc(C(=O)O)c1-c1c(NC(C)=O)cccc1C(=O)O,,,inhibition (Escherichia coli [4]): inactive; inhibition (Escherichia coli [5]): inactive
O=C(O)c1ccccc1-c1ccccc1C(=O)O,,,inhibition (Escherichia coli [4]): inactive; inhibition (Escherichia coli [6]): inactive
O=C(O)c1cccc(C(=O)O)c1-c1c(C(=O)O)cccc1[N+](=O)[O-],1700,450,
O=C(O)c1ccc([N+](=O)[O-])cc1-c1c(C(=O)O)cccc1[N+](=O)[O-],750,1150,
COc1cccc(C(=O)O)c1-c1c(C(=O)O)cccc1[N+](=O)[O-],3000,800,
O=C(O)c1cccc([N+](=O)[O-])c1-c1cccc(F)c1C(=O)O,2250,600,
O=C(O)c1cc(C(=O)O)c(-c2ccccc2[N+](=O)[O-])c(C(=O)O)c1,1850,,IC50 [7]: 3000 µM
Cc1cccc(C(=O)O)c1-c1c(C(=O)O)cccc1[N+](=O)[O-],1300,730,
COc1cccc(C(=O)O)c1-c1ccccc1C(=O)O,4000,,
